The conditions of series [1]: process described in the prior art (WO2018/093953); cited from earlier work.
Series [2] can be described thus: Particle size distribution determination by image analysis (Morphologi G3). The class given is physicochemical. The text has this: The term “particle size distribution” (PSD) as used herein refers to the mean particle size from a statistical distribution of a range of particle sizes. The Compound I-HCl form 2 particle size distribution, in particular d90, d50, d10 values, may be determined by well-known methods of the prior art such as sieve analysis, laser diffraction methods, image analysis or optical counting methods.
As used herein, by “d90 particle size” refers to the particle diameter wherein 90 percent of the particle population has a diameter below such value.
As used herein, by “d50 particle size” refers to the median particle diameter, wherein half of the particle population has a diameter below such value.
As used herein, by “d10 particle size” refers to the particle diameter wherein 10 percent of the particle population has a diameter below such value.
The analysis of particle size distribution of each batch was performed by an image analysis method on a Morphologi G3 Automated Particle Characterization System (Malvern PaNanalytical) with a sample Dispersion Unit SDU Glass Plate (180×110 mm); the instrument automatically process the collected data using the software Morphologi ver. 8.20 and provides a cumulative distribution curve and results in terms of d10, d50 and d90.

Where [3] appears, read: made according to Example 13, not milled.
The mark [4] stands for this setting: made from Example 13, after milling (hammer mill, Example 14).

Read-outs that look alike come from different tables or passages of the source.

As to `Cl.O=C(OC(C(F)(F)F)C(F)(F)F)N1CCN(Cc2ccc(C(F)(F)F)cc2N2CCCC2)CC1` [Compound I-HCl form 2, 1,1,1,3,3,3-hexafluoropropan-2-yl 4-(2-(pyrrolidin-1-yl)-4-(trifluoromethyl)benzyl)piperazine-1-carboxylate mono-hydrochloride salt Form 2], the d10 particle size in series [1] is at least 5 µm; in series [2] (setting [3]) it was “d10 53.5 μm”; in series [2] (setting [4]), “d10 24 μm”. Besides, the figures for the d90 particle size entry in series [1], in series [2] (setting [3]) and in series [2] (setting [4]) were “up to 300 μm”, “d90 201.7 μm” and “d90 175 μm”, respectively. Moreover, the d50 particle size result in series [2] (setting [3]) was “d50 133.1 μm”; in series [2] (setting [4]), “d50 67 μm”.
